The record followed here is US4745111A, “Anti-anxiety, anti-agitation, and anti-sleepless states 4-substituted 10-cyanomethylenethieno-[4,3-e]benzoazepine derivatives, compositions, and methods of use therefor” (priority 1985, dated 1988).

Entries after “also recorded” stand apart in the source; their conditions may differ. Where two headings read alike, the source gives them in different places.

One assay relates to physostigmin. Put plainly: Anticholinergic action (protection from physostigmin lethality) in the mouse. Particulars: for ED50: Mus musculus, po, read-out: Anticholinergic action, mouse, ED50 %; for Anticholinergic action (in words): comparison of isomers and with comparative substance. It counts as in vivo, mouse (female NMRI). The method, then: A lethal dose (0.825 mg/kg) of physostigmin is administered subcutaneously to groups of 10 female NMRI mice. The test substances are administered orally 30 minutes before administration of physostigmin. The ED50 % is determined as the dose of substance which protects 50% of the animals from death due to physostigmin.

In another assay the test system is L-5HTP. Put plainly: L-5-HTP antagonism (serotonin antagonism) in the rat. It counts as in vivo. Particulars: po, read-out: Antimonaminergic action: L-5HTP antagonism, rat, ED50 %. The procedure: In the rat (316 mg/kg, administered intraperitoneally), L-5-[…] (L-5HTP), a prodrug for serotonin, leads to signs of agitation, such as shaking of the head, tremors and movements of the front feet. The animals are observed for 1 hour after administration of L-5HTP, and the symptoms occurring are quantified every 10 minutes with the aid of a score. The test substances are administered perorally 1 hour before L-5HTP. The ED50 % is calculated as the dose which produces on average a 50% reduction in the scores observed for a control group.

The next assay deals with apomorphine. Put plainly: Apomorphine antagonistic action (antidopaminergic action), climbing in mice. It counts as in vivo, mouse. Particulars: for ED50: Mus musculus, po, apomorphine 1.21 mg/kg s.c., dose reducing climbing scores by 50% vs control, read-out: Antimonaminergic action: Apomorphine antagonism, mouse, ED50 %; for Antimonaminergic action (in words): apomorphine (mouse) and L-5HTP (rat) antagonism together, comparison of isomers and with comparative substance. The method, then: In mice kept in a suitable environment (e.g. a wiremesh cage), apomorphine (1.21 mg/kg, administered subcutaneously) leads to increased climbing. The animals are observed for 30 minutes after administration of apomorphine, and the climbing is quantified every 2 minutes with the aid of a score. The test substances are administered perorally 60 minutes […] administration of apomorphine. The ED50 % is calculated as the dose which reduces the scores by 50% compared with a control group.

The test system of assay [1] is orientation hypermotility. In words: Sedative action in the mouse (inhibition of orientation hypermotility). Type of assay: in vivo, mouse (female NMRI). Particulars: for ED50: Mus musculus, 0.5 h, female NMRI mice, oral, dose giving 50% reduction in orientation hypermotility, measured from 30 min after administration over 30 min; for Sedative action (in words): comparison of cis/trans isomers and with comparative substance. The method, then: The substances are administered orally to 4-8 groups of female NMRI mice, each group comprising 3 mice. The orientation hypermotility induced by a new environment was determined photoelectrically 30 minutes after administration of the substances, over a period of 30 minutes.
The ED50 %, i.e. the dose which produces a 50% reduction in orientation hypermotility compared to placebo-treated control animals, is determined.

Setting [2] is: L-5HTP 316 mg/kg i.p., substance p.o. 1 hour before, 50% reduction in scores.

Consider `CN1CCN(C2=Nc3ccccc3C(=CC#N)c3cscc32)CC1` (mixture of isomers) [Example 1, cis,trans-10-cyanomethylene-4-(4-methylpiperazin-1-yl)-thieno[4,3-e]benzoazepine], for which the median effective dose (ED50) (in general, the dose that gives a 50% effect, or the effect in half of the subjects) was found to be 15.8 mg/kg in the assay with physostigmin, 0.77 mg/kg in the assay with L-5HTP (setting [2]), 1.7 mg/kg in the assay with apomorphine and 0.89 mg/kg in assay [1].

Consider `CN1CCN(C2=Nc3cc(Cl)ccc3C(=CC#N)c3cscc32)CC1` (mixture of isomers) [Example 3, cis,trans-7-chloro-10-cyanomethylene-4-(4-methylpiperazin-1-yl)-thieno[4,3-e]benzoazepine], for which the ED50 is more than 21.5 mg/kg in the assay with physostigmin, 0.8 mg/kg in the assay with L-5HTP (setting [2]), approximately 2 mg/kg in the assay on apomorphine and 0.89 mg/kg in assay [1].

Consider `CN1CCN(C2=Nc3cc(F)ccc3C(=CC#N)c3cscc32)CC1` (mixture of isomers) [Example 4, cis,trans-7-fluoro-10-cyanomethylene-4-(4-methylpiperazin-1-yl)-thieno[4,3-e]benzoazepine], for which the ED50 in the assay on physostigmin was approximately 21 mg/kg; in the assay on L-5HTP (setting [2]) it was 1 mg/kg; in the assay on apomorphine it was approximately 2 mg/kg; in assay [1], 3.27 mg/kg.

For the compound `Cc1ccc2c(c1)N=C(N1CCN(C)CC1)c1cscc1C2=CC#N` (mixture of isomers) [Example 5, cis,trans-7-methyl-10-cyanomethylene-4-(4-methylpiperazin-1-yl)-thieno[4,3-e]benzoazepine], the ED50 with physostigmin is more than 21.5 mg/kg; in the assay on L-5HTP (setting [2]), 1.4 mg/kg; in the assay with apomorphine, approximately 2.1 mg/kg; in assay [1] it was 3.75 mg/kg.

With `CCN1CCN(C2=Nc3ccccc3C(=CC#N)c3cscc32)CC1` (mixture of isomers) [Example 9, cis,trans-10-cyanomethylene-4-(4-ethylpiperazin-1-yl)-thieno[4,3-e]benzoazepine], the ED50 in the assay with physostigmin is more than 10 mg/kg; with apomorphine, 1 mg/kg; in assay [1] it was 0.81 mg/kg.

Turning to `CN1CCN(C2=Nc3ccccc3/C(=C\C#N)c3cscc32)CC1` [1 (trans), trans-10-cyanomethylene-4-(4-methylpiperazin-1-yl)-thieno[4,3-e]benzoazepine], in the assay with physostigmin, the ED50 turned out to be 5.2 mg/kg and the “Anticholinergic action (in words)” value is recorded as “predominates; also recorded: stronger than that of the comparative substances”. Further, the ED50 in the assay on L-5HTP (setting [2]) was 33 mg/kg. Moreover, in the assay with apomorphine, the ED50 was found to be 10.9 mg/kg and the “Antimonaminergic action (in words)” value was “fairly weak”. Besides, in assay [1], the ED50 was 5.1 mg/kg and the “Sedative action (in words)” value is reported as “fairly weak”.

Consider `CN1CCN(C2=Nc3cc(Cl)ccc3Nc3ccccc32)CC1` [Clozapine, clozapine, reference compound], for which the median effective dose (ED50) was determined as 6.3 mg/kg in the assay on L-5HTP (setting [2]), 11.3 mg/kg in the assay with apomorphine and 3.8 mg/kg in assay [1].

Regarding `CN1CCN(C2=Nc3ccccc3/C(=C/C#N)c3cscc32)CC1` [Example 1 (cis), cis-10-cyanomethylene-4-(4-methylpiperazin-1-yl)-thieno[4,3-e]benzoazepine], in the assay on physostigmin, the ED50 was more than 10 mg/kg and the “Anticholinergic action (in words)” value is “greatly reduced”. The ED50 in the assay with L-5HTP (setting [2]) is 1 mg/kg. In the assay on apomorphine, the ED50 was 1 mg/kg and the “Antimonaminergic action (in words)” value was “displayed preferentially by the cis isomer”. Also, in assay [1], the ED50 is 0.35 mg/kg and the “Sedative action (in words)” value is given as “displayed preferentially by the cis isomer”.

On to `CN1CCN(C2=Nc3c(Cl)cccc3/C(=C\C#N)c3cscc32)CC1` [Example 16, trans-6-chloro-10-cyanomethylene-4(4-methylpiperazin-1-yl)-thieno[4,3-e]benzoazepine], for which the values for the ED50 (with physostigmin; in the assay with L-5HTP; in assay [1]) were more than 10 mg/kg, 1 mg/kg and approximately 3 mg/kg, respectively.
